In publication PMC4942819 (Scientific Reports, 2016):
In brackets after ≈: the same amount, converted by molar mass. Like-named read-outs stand apart in the source and are kept apart here.

How the values were obtained:
[1] = system: Mycobacterium tuberculosis H37Rv; test: microplate Alamar blue assay (MABA), MIC; format: cell-based; conditions: replicating H37Rv
[2] = system: Mycobacterium avium; test: microdilution plate assay, MIC; format: cell-based
[3] = system: Mycobacterium tuberculosis Erdman; test: microplate Alamar blue assay (MABA), MIC; format: cell-based
[4] = system: Vero cells; test: cytotoxicity, MTT assay; format: cell-based; conditions: Chlorocebus sabaeus
Method: (§1) The compounds were examined for toxicity (IC50) using MTT assay. Briefly, cells (3 ~ 5 × 10^3 cells/well) were seeded in a 96-well plate. After 24 h incubation, the cells were treated with various concentrations of drugs for 24, 48, 72 h, respectively. Columns one and two in the assay plates contained-media +0.1% DMSO for a negative control ,Then, 20 μl of a 5 mg/mL MTT solution was added to each well, and the plates were incubated for an additional 2~4 h at 37 °C. The medium was subsequently discarded, and DMSO 150 μL was added to dissolve the formazan. Oscillate 15 min, the OD 570 was measured using a Spectra MAX M5 microplate spectrophotometer (Molecular Devices, CA, USA), and the IC50 values were calculated.
(§2) Compound MIC was conducted by ShangHai Chempartner Co., Ltd (Shanghai, China) using the microplate Alamar Blue assay (MABA) against Mycobacterium tuberculosis H37Ra (ATCC 25177). Cytotoxicity of tested compounds was assessed on Vero cells.

[5] = system: A549 cells; test: cytotoxicity, MTT assay; format: cell-based; conditions: Homo sapiens
Method: as §1

[6] = system: J774A.1 cells; test: cytotoxicity, MTT assay; format: cell-based; conditions: Mus musculus, J774.A1
Method: as §1

[7] = system: XDR-TB clinical isolates; test: microbe, parasite or virus in culture; format: cell-based, Mycobacterium tuberculosis; conditions: Mycobacterium tuberculosis
[8] = system: M. tuberculosis H37Rv; test: MABA checkerboard synergy assay; format: cell-based, Mycobacterium tuberculosis; conditions: for MIC: Mycobacterium tuberculosis, H37RV, checkerboard, drug alone, read-out: MIC against H37Rv, MIC alone
[9] = pharmacokinetic study in SD rats; format: in vivo; conditions: female, rat, plasma, SD rats
Method: All animal experiments have been approved by the Institutional Animal Care and Treatment Committee of Sichuan University in China and were carried out in accordance with the approved guidelines. SPF female SD rats weighing 180–220 g were used in the pharmacokinetic study. The rats were fasted overnight before dosing. Every treatment group contain 3 rats. Rats were dosed with SKLB-TB1001 or BTZ043 suspension at 5 mg/kg (i.v. and p.o.). Compounds were dissolved in 5% DMSO/10% Solutol HS15 in saline for intravenous injection and suspended in 0.5% CMC for oral administration. Blood was collected from the jugular vein of each animal at the following times after administration of drugs: 0.083, 0.25, 0.5, 1, 2, 4, 6, 8 and 24 h after a single i.v. dosing; and 0.25, 0.5, 1, 2, 4, 6, 8 and 24 h after a single oral dosing. All blood samples were centrifuged at 3000 r/min for 10 min to obtain serum which was then stored at −20 °C. 150 μL of the serum was added to 500 μL of acetonitrile and the mixture was centrifuged at 13000 r/min for 10 min to remove protein. The supernatant was dried and dissolve in 100 μL of acetonitrile, the solution was centrifuged at 13000 r/min for 10 min. The supernatant was moved to a sample bottle for HPLC analysis. Total area under the concentration time curve (AUC), the elimination half-time (t1/2), the peak concentration (Cmax) and the time to reach peak concentration (Tmax) of samples were determined directly from the experimental data using WinNonlin V6.2.1.

[10] = in vivo acute toxicity study; parameters: species or system BALB/c mice; AST: unit not given here; conditions: for ALB / ALP / AST / BUN / CHOL / TP: 1 g/kg i.p., 2 weeks, Mean ± SE, n = 5
Method: All animal experiments have been approved by the Institutional Animal Care and Treatment Committee of Sichuan University in China and were carried out in accordance with the approved guidelines. 20 BALB/c mice in both sexes were administered with SKLB-TB1001 CMC suspension at 1 g/kg by intraperitoneal injection, control mice remained untreated. Animals were continuously observed for 24 hours after administration. In each group, numbers of deaths and general behavior were recorded within 2 weeks, LD50 values were calculated. 2 weeks later, animals were sacrificed, blood samples were collected from the eye vein for biochemical and hematological tests. The organs and tissues of animals were removed and fixed in 10% formalin and embedded in paraffin for histological evaluation.

[11] = system: Mycobacterium tuberculosis H37Ra (ATCC 25177); test: microplate Alamar Blue assay (MABA), MIC, H37Ra; format: cell-based
Method: as §2

[12] = system: MDR1; test: bi-directional permeability across MDR1-MDCKII cell monolayer; format: in vitro ADME; conditions: dog, MDCK-MDR1; MDR1-MDCKII
Method: (§3) The In vitro ADME/T assays were conducted at WuXi AppTec Co. Ltd.(Shanghai). ClogP was calculated with ChemDraw Ultra 14.0. In the study of bi-directional permeability across MDR1-MDCKII cell monolayer, permeability was correlated with the apparent permeability coefficient Papp (cm/s), which was interpreted as follows: Low permeability( Papp ≤ 1.0×10^-6 cm/s), Moderate permeability(1.0×10^-6 < Papp < 5.5×10^-6 cm/s) or High permeability( Papp ≥ 5.5×10^-6 cm/s). ^aaqueous solubility at room temperature.

[13] = molecular target: CYP2C9 (Homo sapiens, UniProt P11712); test: CYP inhibition; format: in vitro ADME
Sequence of CYP2C9 (P11712 whole entry): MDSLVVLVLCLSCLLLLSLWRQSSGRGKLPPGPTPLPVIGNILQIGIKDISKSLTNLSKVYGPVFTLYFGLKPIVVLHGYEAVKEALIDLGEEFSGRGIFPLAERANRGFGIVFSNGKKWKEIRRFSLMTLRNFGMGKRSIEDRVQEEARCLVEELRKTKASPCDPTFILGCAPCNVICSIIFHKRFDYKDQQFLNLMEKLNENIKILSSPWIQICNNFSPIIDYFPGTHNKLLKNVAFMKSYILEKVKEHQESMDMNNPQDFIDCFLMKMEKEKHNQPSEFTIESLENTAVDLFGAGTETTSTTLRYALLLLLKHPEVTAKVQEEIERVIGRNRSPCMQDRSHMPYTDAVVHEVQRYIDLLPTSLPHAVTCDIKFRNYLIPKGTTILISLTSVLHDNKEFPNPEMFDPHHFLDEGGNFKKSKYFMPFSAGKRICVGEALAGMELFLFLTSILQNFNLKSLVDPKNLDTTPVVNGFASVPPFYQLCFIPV
Method: as §3

[14] = molecular target: CYP3A4 (Homo sapiens, UniProt P08684); test: CYP inhibition; format: in vitro ADME
Sequence of CYP3A4 (P08684 whole entry): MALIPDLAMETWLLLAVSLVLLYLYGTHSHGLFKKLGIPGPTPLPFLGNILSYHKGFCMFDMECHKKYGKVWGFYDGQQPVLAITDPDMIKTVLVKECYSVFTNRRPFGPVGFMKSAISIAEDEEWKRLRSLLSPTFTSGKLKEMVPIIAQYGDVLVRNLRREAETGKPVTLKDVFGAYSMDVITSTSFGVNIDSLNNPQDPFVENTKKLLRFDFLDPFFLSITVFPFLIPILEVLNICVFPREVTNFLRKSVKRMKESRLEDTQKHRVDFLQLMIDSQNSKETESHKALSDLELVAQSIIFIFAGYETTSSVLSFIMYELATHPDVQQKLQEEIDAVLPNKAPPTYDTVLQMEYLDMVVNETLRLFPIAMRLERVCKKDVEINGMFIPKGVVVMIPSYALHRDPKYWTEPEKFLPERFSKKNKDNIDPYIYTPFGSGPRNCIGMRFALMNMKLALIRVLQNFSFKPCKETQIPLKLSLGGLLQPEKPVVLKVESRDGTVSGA
Method: as §3

SMILES: O=[N+]([O-])c1cc(C(F)(F)F)cc2c(=S)nc(N3CCC4(CC3)OCCO4)sc12 [SKLB-TB1001, 8-nitro-2-(1,4-dioxa-8-azaspiro[4.5]decan-8-yl)-6-(trifluoromethyl)-4H-benzo[e][1,3]thiazine-4-thione]
- MIC [1]: 0.02 µg/mL (≈ 0.0461 µM)
- MIC [2]: 32 µg/mL (≈ 73.8 µM)
- MIC [3]: < 0.05 µg/mL
- IC50 ([4]; Vero, cytotoxicity, read-out: IC50 Vero): > 100 µg/mL
- IC50 ([4]; cytotoxicity on Vero cells, read-out: IC50): > 20 µM
- IC50 [5]: > 100 µg/mL
- IC50 [6]: > 32 µg/mL
- MIC ([7]; read-out: MIC, XDR-TB strain X15): < 0.0156 µg/mL
- MIC ([7]; read-out: MIC, XDR-TB strain X17): < 0.0156 µg/mL
- MIC ([8]; 336 h): 0.02 µg/mL
- MIC [8]: 0.02 µg/mL
- FICI ([8]; combination with linezolid): 1.34
- MIC against H37Rv, MIC in combo. ([8]; in combination with INH): 0.007 µg/mL
- MIC against H37Rv, MIC in combo. ([8]; in combination with LZD): 0.013 µg/mL
- MIC against H37Rv, MIC in combo. ([8]; in combination with MOX): 0.008 µg/mL
- FICI ([8]; in combination with RMP): 0.22
- MIC against H37Rv, MIC in combo. ([8]; in combination with RMP): 0.001 µg/mL
- decrease of MIC ([8]; in the presence of RMP): 5 fold
- FICI ([8]; in the presence of isoniazid): 0.68
- FICI ([8]; in the presence of moxifloxacin): 0.97
- bioavailability ([9]; oral, AUC (p.o., 5 mg/kg)/AUC(i.v., 5 mg/kg), read-out: F, absolute oral bioavailability): 44.4%
- half-life ([9]; po, 5 mg/kg, terminal half-life for elimination): 1.45 h
- AUC ([9]; po, p.o., 5 mg/kg, t = 0 to infinity, read-out: AUC): 847 ng·h/mL
- Tmax ([9]; po, p.o., 5 mg/kg, read-out: Tmax): 1.13 h
- Cmax ([9]; po, p.o., 5 mg/kg, read-out: Cmax): 193 ng/mL
- death in acute single dose toxicity studies ([10]; BALB/c mice, 1 g/kg, 14 days): no death
- pathological changes in heart, liver, lung, kidneys and spleen ([10]; BALB/c mice, 1 g/kg, 14 days): No observable pathological changes
- maximum non-toxic dose ([10]; BALB/c mice, single dose, intraperitoneal): greater than 1 g/kg
- ALB ([10]; Female Treatment): 32.18 ± 0.65 g/L
- ALP ([10]; Female Treatment): 162.00 ± 4.70 U/L
- AST ([10]; Female Treatment): 154.60 ± 5.57
- BUN ([10]; Female Treatment): 7.06 ± 0.35 mmol/L
- CHOL ([10]; Female Treatment): 3.31 ± 0.08 mmol/L
- TP ([10]; Female Treatment): 68.56 ± 1.42 g/L
- ALB ([10]; Male Treatment): 32.84 ± 0.44 g/L
- ALP ([10]; Male Treatment): 159.20 ± 6.98 U/L
- AST ([10]; Male Treatment): 153.40 ± 4.30
- BUN ([10]; Male Treatment): 7.10 ± 0.60 mmol/L
- CHOL ([10]; Male Treatment): 3.31 ± 0.07 mmol/L
- TP ([10]; Male Treatment): 68.38 ± 1.58 g/L
- MIC [11]: < 0.1 µM
- Papp A→B [12]: 6.96 ×10⁻⁶ cm/s
- Papp B→A [12]: 7.27 ×10⁻⁶ cm/s
- efflux ratio [12]: 1.04
- IC50 [13]: > 10 µM
- IC50 [14]: > 10 µM
